This note sets out measurements from patent US20070117770A1, “Human ribosomal DNA (rDNA) and ribosomal RNA (rRNA) nucleic acids and uses thereof” (Cylene Pharmaceuticals, Inc., priority 2005, published 2007).

One assay relates to cells. As to the kind of experiment: Cell cycle progression (propidium iodide, flow cytometry). Type of assay: cell-based. The note with it: various concentrations, varying amounts of time. As for the experimental part:
(§1) In assays for determining cell cycle progression effects, cells were harvested and single cell suspensions were prepared in buffer (e.g. PBS +2% FBS; PBS+0.1% BSA). Cells were washed twice and resuspend at 1-2×10^6 cells/ml. One ml cells was aliquotted in a 15 ml polypropylene, V-bottomed tube and 3 ml cold absolute ethanol was added. Cells were fixed for at least one hour at 4° C. Fixed cells were washed twice in PBS and one ml of propidium iodide staining solution (3.8 mM sodium citrate, 50 ug/ml propidium iodide in PBS) was added to each cell pellet and mixed well. Fifty microliters of an RNase A stock solution ([…] RNase A boiled for 5 minutes and aliquoted and stored frozen at −20° C.) was added and the resulting mixture was incubated for 3 hours at 4° C. Samples were stored at 4° C. until analyzed by flow cytometry.
For orientation: In flow cytometry, cells or beads pass a laser one at a time.

The subject of the next assay is A549 cells. Briefly: Cell localization assay (fluorescence microscope). It is filed as cell-based. The note with it: 2 uM, one hour or two hours. As for the experimental part: A cell localization assay was utilized to determine cell localization for compounds that interacted with rRNA. In these studies, A549 cells were plated in borosilicate chamber slides. The cells were treated with 2 uM compound A-1 the next day for one hour or two hours, washed with PBS, fixed for 10 min in 4% paraformaldehyde and observed under a fluorescence microscope (Olympus) in the Ex360 nm/Em548 nm channel at 600× magnification. […] Accordingly, a compound tested in the assay was localized in cell nucleoli.

For a further assay, the target named is T1, nucleolin/6183NT (Homo sapiens, UniProt P19338).
T1 construct: without the N-terminal acidic stretches domain
As to the kind of experiment: EMSA, interference with nucleolin/nucleic acid ligand interaction. Details: key to Activity of Compound A-1 (relative interference), ligand 6183NT: +: least interference by compound A-1; ++++: greatest interference by compound A-1. It is filed as binding. As for the experimental part: The following assays assessed effects of compounds on interactions between nucleolin and nucleic acid ligands capable of forming quadruplex (QP) and hairpin (HP) secondary structures. Nucleic acid ligands tested were a cMyc QP DNA having nucleotide sequence 5′-[…]-3′ (SEQ ID NO: 176) and a HP pre-rRNA region to which nucleolin binds, having the sequence 5′-[…]-3′ (SEQ ID NO: 177). In the assays, recombinant nucleolin (˜250 nM), which was fused to maltose binding protein and had the sequence under accession number NM_005381 without the N-terminal acidic stretches domain, was incubated with each of the two ^32P-labeled nucleic acid ligands (10 or 250 nM). Nucleolin and the nucleic acid ligand were incubated in the presence or absence of a test compound of Formula A-1, B-1, C-6 or C-7 in an incubation buffer (12.5 mM Tris, pH 7.6, 60 mM KCl, 1 mM MgCl2, 0.1 mM EDTA, 1 mM DTT, 5% glycerol, 0.1 mg/ml BSA) for 30 minutes at room temperature. Structures for A-1 and B-1 are shown above and structures for C-6 and C-7 are shown hereafter: [drawing 17] […]
The assay also was conducted in a filter-binding format. […] Radioactivity was assayed with MicroBeta scintillation counter (Perkin Elmer). Binding curves were constructed and apparent Kd's and Bmax's for the complexes were calculated using the GraphPad Prizm software program (GraphPad Software). […]

Assay [1] has as its system HCT-116 colon carcinoma cells (p53+). Briefly: Cell cycle progression (propidium iodide, flow cytometry). It is filed as cell-based. The note with it: HCT-116 (p53+). As to the method:
as §1

A further assay deals with MiaPaCa pancreatic cells. The assay is described as above. It is filed as cell-based. As to the method:
as §1

Assay [2] deals with DAOY medulloblastoma cells (p53−). The description is as above. Type of assay: cell-based. As for the experimental part:
as §1

T1 sequence (P19338 284-710 limits assumed): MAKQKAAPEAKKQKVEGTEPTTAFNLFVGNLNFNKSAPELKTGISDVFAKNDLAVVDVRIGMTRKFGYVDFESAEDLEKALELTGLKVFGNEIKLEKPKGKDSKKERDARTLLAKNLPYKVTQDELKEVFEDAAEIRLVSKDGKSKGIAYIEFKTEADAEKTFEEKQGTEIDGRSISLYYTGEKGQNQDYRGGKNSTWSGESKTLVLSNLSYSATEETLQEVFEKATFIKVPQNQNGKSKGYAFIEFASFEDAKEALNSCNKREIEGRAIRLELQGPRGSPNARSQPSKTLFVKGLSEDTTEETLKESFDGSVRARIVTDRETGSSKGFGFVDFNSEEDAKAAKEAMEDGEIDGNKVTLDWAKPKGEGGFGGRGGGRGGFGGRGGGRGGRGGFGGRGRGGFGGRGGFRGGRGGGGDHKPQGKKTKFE

Take `CN1CCCC1CCNC(=O)c1cn2c3c(c(N4CCC(c5cnccn5)C4)c(F)cc3c1=O)Oc1cc3ccccc3cc1-2` (stereo not shown) [Compound A-1]: the “effect on the cell cycle” value in the assay on cells is listed as “little or no affect on the cell cycle”. For the same compound, the “cell localization judged by fluorescence intensity” value in the assay on A549 cells is “accumulated in the nucleoli, as well as the cytoplasm/perinuclear space”. Besides, the “Activity of Compound A-1 (relative interference), ligand 6183NT” value at nucleolin/6183NT is given as “+”. For the same compound, the IC50 on nucleolin/6183NT (ligand 6183NT, read-out: IC50, concentration of Compound A-1 required to dissociate half of the complexed nucleic acid ligand and nucleolin protein) was determined as 3 µM.

In the case of `CC(=O)N1CCN(c2ccc3c(=O)c(C(=O)NCCN4CCCC4)c4n(C)c5ccccc5n4c3n2)CC1` [Compound B-1], the cell cycle arrest result is “arrested in G1 and G2 phases of the cell cycle” in assay [1]; “arrested primarily in the S phase with some G2 arrest as well” with MiaPaCa pancreatic cells; “arrested primarily in the S phase with some G2 arrest as well” in assay [2].
